Measured values taken from ChEMBL document CHEMBL1201862, “PubChem BioAssay data set” (2004).
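48-hour exposure; five concentrations; linearly interpolated endpoints. GI50: concentration for 50% inhibition of growth.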 The source made the active and inactive calls. Cut-off read from the data, not from the text of the source: active = GI50 up to about 1.1 µM and inactive = higher.

Experiments:
Experiment in all cases: growth of human tumour cells (NCI), 48 h
SK-MEL-28 = system: SK-MEL-28
MCF7 = system: MCF7
HT-29 = system: HT-29
U-251 = system: U-251
HCT-15 = system: HCT-15
PC-3 = system: PC-3
SR = system: SR
KM12 = system: KM12
SF-539 = system: SF-539
HOP-92 = system: HOP-92
MDA-MB-231 = system: MDA-MB-231
RPMI-8226 = system: RPMI-8226
OVCAR-5 = system: OVCAR-5
UACC-257 = system: UACC-257
T47D = system: T47D
ACHN = system: ACHN
OVCAR-3 = system: OVCAR-3
A549 = system: A549
Hs-578T = system: Hs-578T
NCI-H460 = system: NCI-H460
SNB-75 = system: SNB-75
SK-MEL-2 = system: SK-MEL-2
Malme-3M = system: Malme-3M
TK-10 = system: TK-10
EKVX = system: EKVX
NCI-H522 = system: NCI-H522
HCC 2998 = system: HCC 2998
IGROV-1 = system: IGROV-1
M14 = system: M14
HOP-62 = system: HOP-62
COLO 205 = system: COLO 205
HL-60 = system: HL-60
A498 = system: A498
SNB-19 = system: SNB-19
CCRF-CEM = system: CCRF-CEM
UACC-62 = system: UACC-62
SF-268 = system: SF-268
NCI-H226 = system: NCI-H226
MDA-N = system: MDA-N
NCI/ADR-RES = system: NCI/ADR-RES
MOLT-4 = system: MOLT-4
DU-145 = system: DU-145
NCI-H23 = system: NCI-H23
SK-MEL-5 = system: SK-MEL-5
MDA-MB-435 = system: MDA-MB-435
LOX IMVI = system: LOX IMVI
SF-295 = system: SF-295
OVCAR-4 = system: OVCAR-4
OVCAR-8 = system: OVCAR-8
BT-549 = system: BT-549
786-0 = system: 786-0
SN12C = system: SN12C
SW-620 = system: SW-620
CAKI-1 = system: CAKI-1
SK-OV-3 = system: SK-OV-3
HCT-116 = system: HCT-116
RXF 393 = system: RXF 393
UO-31 = system: UO-31
K562 = system: K562

COc1cc(Nc2ccc3c(c2)CCC3)nc(OC)n1 was tested, and the GI50 (SK-MEL-28) was > 100 µM (inactive), the GI50 (MCF7) was 29.6 µM (inactive) and the GI50 (HT-29) was 19.9 µM (inactive). The GI50 (U-251) was > 100 µM (inactive), the GI50 (HCT-15) was 27.8 µM and the GI50 (PC-3) was 27.1 µM (inactive). The GI50 (SR) was 20.5 µM (inactive), the GI50 (KM12) was 27.9 µM (inactive) and the GI50 (SF-539) was 38.9 µM (inactive). For the same molecule, the GI50 (HOP-92) was 32.4 µM (inactive), the GI50 (MDA-MB-231) was 38.5 µM (inactive) and the GI50 (RPMI-8226) was 14.7 µM (inactive). For the same molecule, the GI50 (OVCAR-5) was 78 µM (inactive), the GI50 (UACC-257) was 44.4 µM (inactive) and the GI50 (T47D) was 26.4 µM (inactive). The GI50 (ACHN) was 28.2 µM (inactive), the GI50 (OVCAR-3) was 46.1 µM (inactive) and the GI50 (A549) was 26.5 µM (inactive). For the same molecule, the GI50 (Hs-578T) was 6.58 µM (inactive), the GI50 (NCI-H460) was 30.8 µM (inactive) and the GI50 (SNB-75) was 18.9 µM (inactive). For the same molecule, the GI50 (SK-MEL-2) was 33 µM (inactive), the GI50 (Malme-3M) was 32.1 µM (inactive) and the GI50 (TK-10) was 28.2 µM (inactive). The GI50 (EKVX) was 17.1 µM (inactive), the GI50 (NCI-H522) was 21.4 µM (inactive) and the GI50 (HCC 2998) was 29.7 µM (inactive). The GI50 (IGROV-1) was 31.4 µM (inactive), the GI50 (M14) was 43.3 µM (inactive) and the GI50 (HOP-62) was 54.6 µM (inactive). The GI50 (COLO 205) was 37.3 µM (inactive), the GI50 (HL-60) was 29.6 µM (inactive) and the GI50 (A498) was 24.3 µM (inactive). The GI50 (SNB-19) was 43.6 µM (inactive), the GI50 (CCRF-CEM) was 49.7 µM (inactive) and the GI50 (UACC-62) was 51.3 µM (inactive). For the same molecule, the GI50 (SF-268) was 23.9 µM (inactive), the GI50 (NCI-H226) was 32.5 µM (inactive) and the GI50 (MDA-N) was 26.1 µM (inactive). The GI50 (NCI/ADR-RES) was 23.1 µM (inactive), the GI50 (MOLT-4) was 0.0144 µM (active) and the GI50 (DU-145) was 53 µM (inactive). The GI50 (NCI-H23) was 36 µM (inactive), the GI50 (SK-MEL-5) was 23.9 µM (inactive) and the GI50 (MDA-MB-435) was > 100 µM (inactive). The GI50 (LOX IMVI) was 45.7 µM (inactive), the GI50 (SF-295) was 29.6 µM (inactive) and the GI50 (OVCAR-4) was 33.3 µM (inactive). For the same molecule, the GI50 (OVCAR-8) was 34.8 µM (inactive), the GI50 (BT-549) was 33.3 µM (inactive) and the GI50 (786-0) was 37.2 µM (inactive). For the same molecule, the GI50 (SN12C) was 30.2 µM (inactive), the GI50 (SW-620) was > 100 µM (inactive) and the GI50 (CAKI-1) was 37.9 µM (inactive). For the same molecule, the GI50 (SK-OV-3) was 50 µM (inactive) and the GI50 (HCT-116) was 38.2 µM (inactive).

For COC1C(=O)N(SC)C1c1ccccc1Cl (stereo not drawn), the GI50 (SK-MEL-28) was > 100 µM (inactive), the GI50 (MCF7) was 19.7 µM (inactive) and the GI50 (HT-29) was 20.3 µM (inactive). For the same molecule, the GI50 (U-251) was 52.4 µM (inactive), the GI50 (HCT-15) was 22.3 µM and the GI50 (PC-3) was 86.7 µM (inactive). The GI50 (SR) was 18.6 µM (inactive), the GI50 (KM12) was > 100 µM (inactive) and the GI50 (RXF 393) was > 100 µM (inactive). For the same molecule, the GI50 (SF-539) was 19.6 µM (inactive), the GI50 (HOP-92) was 36.1 µM (inactive) and the GI50 (MDA-MB-231) was 35.6 µM (inactive). The GI50 (RPMI-8226) was 19.6 µM (inactive), the GI50 (OVCAR-5) was 17.8 µM (inactive) and the GI50 (UACC-257) was > 100 µM (inactive). The GI50 (T47D) was 27.4 µM (inactive), the GI50 (ACHN) was 18.8 µM (inactive) and the GI50 (OVCAR-3) was 19.6 µM (inactive). For the same molecule, the GI50 (A549) was > 100 µM (inactive), the GI50 (UO-31) was 17.5 µM (inactive) and the GI50 (Hs-578T) was > 100 µM (inactive). For the same molecule, the GI50 (NCI-H460) was > 100 µM (inactive), the GI50 (SK-MEL-2) was > 100 µM (inactive) and the GI50 (Malme-3M) was 22.6 µM (inactive). For the same molecule, the GI50 (TK-10) was > 100 µM (inactive), the GI50 (EKVX) was 24.4 µM (inactive) and the GI50 (NCI-H522) was 16.6 µM (inactive). For the same molecule, the GI50 (HCC 2998) was 14.7 µM (inactive), the GI50 (IGROV-1) was 18.7 µM (inactive) and the GI50 (M14) was 28.1 µM (inactive). The GI50 (HOP-62) was > 100 µM (inactive), the GI50 (COLO 205) was 51.8 µM (inactive) and the GI50 (HL-60) was 16.7 µM (inactive). For the same molecule, the GI50 (A498) was > 100 µM (inactive), the GI50 (SNB-19) was > 100 µM (inactive) and the GI50 (CCRF-CEM) was 14.6 µM (inactive). For the same molecule, the GI50 (UACC-62) was 54.8 µM (inactive), the GI50 (SF-268) was > 100 µM (inactive) and the GI50 (MDA-N) was 34.6 µM (inactive). For the same molecule, the GI50 (NCI/ADR-RES) was 68.1 µM (inactive), the GI50 (MOLT-4) was 9.62 µM (inactive) and the GI50 (K562) was 25.9 µM (inactive). For the same molecule, the GI50 (DU-145) was > 100 µM (inactive), the GI50 (NCI-H23) was > 100 µM (inactive) and the GI50 (SK-MEL-5) was 95.5 µM (inactive). The GI50 (MDA-MB-435) was 21.3 µM (inactive), the GI50 (LOX IMVI) was 42.2 µM (inactive) and the GI50 (SF-295) was > 100 µM (inactive). The GI50 (OVCAR-4) was 16.7 µM (inactive), the GI50 (OVCAR-8) was 19.6 µM (inactive) and the GI50 (BT-549) was 23.4 µM (inactive). For the same molecule, the GI50 (786-0) was 18.7 µM (inactive), the GI50 (SN12C) was 22.8 µM (inactive) and the GI50 (SW-620) was 21.4 µM (inactive). The GI50 (CAKI-1) was 80.5 µM (inactive), the GI50 (SK-OV-3) was > 100 µM (inactive) and the GI50 (HCT-116) was 11.3 µM (inactive).
